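Exposure lasted 48 hours, with cells grown in 96-well plates and compounds tested at five concentrations. At the GI50, growth is halved.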 Activity calls are given as the source filed them. No stated cut-off is given here; in the data, active = GI50 up to about 1.1 µM and inactive = higher.
Key:
Assay in all cases: DTP human tumour cell line panel, 48 h
786-0 = test system: 786-0
A498 = test system: A498
A549 = test system: A549
ACHN = test system: ACHN
BT-549 = test system: BT-549
CAKI-1 = test system: CAKI-1
CCRF-CEM = test system: CCRF-CEM
COLO 205 = test system: COLO 205
DU-145 = test system: DU-145
EKVX = test system: EKVX
HCC 2998 = test system: HCC 2998
HCT-116 = test system: HCT-116
HCT-15 = test system: HCT-15
HL-60 = test system: HL-60
HOP-62 = test system: HOP-62
HOP-92 = test system: HOP-92
HT-29 = test system: HT-29
Hs-578T = test system: Hs-578T
IGROV-1 = test system: IGROV-1
K562 = test system: K562
KM12 = test system: KM12
LOX IMVI = test system: LOX IMVI
M14 = test system: M14
MCF7 = test system: MCF7
MDA-MB-435 = test system: MDA-MB-435
MDA-N = test system: MDA-N
MOLT-4 = test system: MOLT-4
Malme-3M = test system: Malme-3M
NCI-H226 = test system: NCI-H226
NCI-H23 = test system: NCI-H23
NCI-H460 = test system: NCI-H460
NCI-H522 = test system: NCI-H522
NCI/ADR-RES = test system: NCI/ADR-RES
OVCAR-3 = test system: OVCAR-3
OVCAR-4 = test system: OVCAR-4
OVCAR-5 = test system: OVCAR-5
OVCAR-8 = test system: OVCAR-8
RPMI-8226 = test system: RPMI-8226
RXF 393 = test system: RXF 393
SF-268 = test system: SF-268
SF-295 = test system: SF-295
SF-539 = test system: SF-539
SK-MEL-28 = test system: SK-MEL-28
SK-MEL-5 = test system: SK-MEL-5
SK-OV-3 = test system: SK-OV-3
SN12C = test system: SN12C
SNB-19 = test system: SNB-19
SNB-75 = test system: SNB-75
SW-620 = test system: SW-620
T47D = test system: T47D
TK-10 = test system: TK-10
U-251 = test system: U-251
UACC-257 = test system: UACC-257
UACC-62 = test system: UACC-62
UO-31 = test system: UO-31
MDA-MB-231 = test system: MDA-MB-231
PC-3 = test system: PC-3
SK-MEL-2 = test system: SK-MEL-2
SR = test system: SR

Measured: GI50

COc1ccc(N[C@H](C[S+]([O-])c2ccc(C)cc2)C(F)(F)C(F)(F)F)cc1 (stereo partly drawn)
inactive: 786-0 65.8 µM | A498 > 100 µM | A549 99.5 µM | ACHN > 100 µM | BT-549 85.1 µM | CAKI-1 > 100 µM | CCRF-CEM > 100 µM | COLO 205 > 100 µM | DU-145 > 100 µM | EKVX 65.2 µM | HCC 2998 > 100 µM | HCT-116 52.4 µM | HL-60 > 100 µM | HOP-62 57.5 µM | HOP-92 26.1 µM | HT-29 > 100 µM | Hs-578T 36.6 µM | IGROV-1 > 100 µM | K562 > 100 µM | KM12 > 100 µM | LOX IMVI 91.4 µM | M14 97.3 µM | MCF7 > 100 µM | MDA-MB-435 > 100 µM | MDA-N > 100 µM | MOLT-4 > 100 µM | Malme-3M > 100 µM | NCI-H226 31 µM | NCI-H23 43.5 µM | NCI-H460 > 100 µM | NCI-H522 71.4 µM | NCI/ADR-RES > 100 µM | OVCAR-3 > 100 µM | OVCAR-4 95.7 µM | OVCAR-5 > 100 µM | OVCAR-8 90.6 µM | RPMI-8226 > 100 µM | RXF 393 4.21 µM | SF-268 52.8 µM | SF-295 62.4 µM | SF-539 64.6 µM | SK-MEL-28 > 100 µM | SK-MEL-5 68.1 µM | SK-OV-3 44.1 µM | SN12C > 100 µM | SNB-19 35.8 µM | SNB-75 21 µM | SW-620 > 100 µM | T47D 14.1 µM | TK-10 > 100 µM | U-251 37.4 µM | UACC-257 > 100 µM | UACC-62 43 µM | UO-31 > 100 µM
> 100 µM: HCT-15

O=C(Nc1ccc2oc(=O)c(C(=O)O)cc2c1)Oc1ccccc1
inactive: 786-0 > 100 µM | A498 > 100 µM | A549 > 100 µM | ACHN > 100 µM | BT-549 > 100 µM | CAKI-1 > 100 µM | COLO 205 > 100 µM | DU-145 > 100 µM | EKVX > 100 µM | HCC 2998 59.6 µM | HCT-116 > 100 µM | HOP-62 > 100 µM | HOP-92 > 100 µM | HT-29 > 100 µM | Hs-578T > 100 µM | IGROV-1 > 100 µM | K562 > 100 µM | KM12 > 100 µM | LOX IMVI > 100 µM | M14 > 100 µM | MCF7 > 100 µM | MDA-MB-231 > 100 µM | MDA-MB-435 > 100 µM | MOLT-4 > 100 µM | Malme-3M > 100 µM | NCI-H226 > 100 µM | NCI-H23 > 100 µM | NCI-H460 > 100 µM | NCI-H522 > 100 µM | NCI/ADR-RES > 100 µM | OVCAR-3 > 100 µM | OVCAR-4 > 100 µM | OVCAR-5 > 100 µM | OVCAR-8 > 100 µM | PC-3 > 100 µM | RPMI-8226 > 100 µM | RXF 393 > 100 µM | SF-268 > 100 µM | SF-295 > 100 µM | SF-539 > 100 µM | SK-MEL-28 > 100 µM | SK-MEL-2 > 100 µM | SK-MEL-5 > 100 µM | SK-OV-3 > 100 µM | SN12C > 100 µM | SNB-19 > 100 µM | SNB-75 > 100 µM | SR > 100 µM | SW-620 > 100 µM | T47D > 100 µM | TK-10 > 100 µM | U-251 > 100 µM | UACC-257 > 100 µM | UACC-62 > 100 µM | UO-31 > 100 µM
> 100 µM: HCT-15

NCCCCNOCCCN
inactive: A549 > 100 µM | ACHN > 100 µM | BT-549 > 100 µM | CAKI-1 > 100 µM | CCRF-CEM > 100 µM | COLO 205 > 100 µM | DU-145 > 100 µM | EKVX > 100 µM | HCC 2998 > 100 µM | HCT-116 > 100 µM | HOP-92 > 100 µM | HT-29 > 100 µM | Hs-578T > 100 µM | IGROV-1 > 100 µM | K562 > 100 µM | KM12 > 100 µM | LOX IMVI > 100 µM | M14 > 100 µM | MCF7 > 100 µM | MDA-MB-435 > 100 µM | MDA-N > 100 µM | MOLT-4 > 100 µM | Malme-3M > 100 µM | NCI-H226 > 100 µM | NCI-H23 > 100 µM | NCI-H460 > 100 µM | NCI-H522 61.5 µM | NCI/ADR-RES > 100 µM | OVCAR-3 > 100 µM | OVCAR-4 > 100 µM | OVCAR-5 42.8 µM | OVCAR-8 > 100 µM | PC-3 > 100 µM | RPMI-8226 > 100 µM | RXF 393 > 100 µM | SF-268 > 100 µM | SF-295 > 100 µM | SF-539 > 100 µM | SK-MEL-28 > 100 µM | SK-MEL-2 > 100 µM | SK-MEL-5 > 100 µM | SK-OV-3 > 100 µM | SN12C > 100 µM | SNB-19 > 100 µM | SNB-75 > 100 µM | SR > 100 µM | SW-620 > 100 µM | T47D > 100 µM | TK-10 > 100 µM | U-251 > 100 µM | UACC-257 > 100 µM | UACC-62 > 100 µM | UO-31 > 100 µM

O[C@H]1[C@@H]2OC[C@@H](O)[C@H](OCc3ccccc3)[C@@](COCc3ccccc3)(O2)[C@@H]1OCc1ccccc1
16.4 µM: HCT-15
inactive: 786-0 19.9 µM | A498 17.5 µM | A549 17.1 µM | ACHN 16.7 µM | BT-549 17.7 µM | CCRF-CEM 17.4 µM | COLO 205 18.2 µM | DU-145 18.5 µM | EKVX 14.5 µM | HCT-116 20.1 µM | HL-60 32.6 µM | HOP-62 17.2 µM | HOP-92 10.2 µM | HT-29 15.2 µM | Hs-578T 14.7 µM | IGROV-1 13.9 µM | K562 25.4 µM | KM12 17.2 µM | LOX IMVI 18.5 µM | M14 17.3 µM | MCF7 19.3 µM | MDA-MB-231 17 µM | MDA-MB-435 17.3 µM | MDA-N 15.4 µM | MOLT-4 30.7 µM | Malme-3M 13.6 µM | NCI-H23 17.1 µM | NCI-H460 20.3 µM | NCI-H522 13.7 µM | NCI/ADR-RES 16.7 µM | OVCAR-3 5.46 µM | OVCAR-4 12 µM | OVCAR-5 15.1 µM | OVCAR-8 16.7 µM | PC-3 13.2 µM | RPMI-8226 10.4 µM | RXF 393 20.2 µM | SF-268 22.2 µM | SF-295 12.6 µM | SF-539 15.5 µM | SK-MEL-28 14.1 µM | SK-MEL-2 15.2 µM | SK-OV-3 21.6 µM | SN12C 14.7 µM | SNB-19 16.4 µM | SNB-75 2.39 µM | SR 38.5 µM | SW-620 18.5 µM | TK-10 17.2 µM | U-251 16 µM | UACC-257 14.8 µM | UACC-62 11.4 µM | UO-31 16.7 µM
active: CAKI-1 < 0.01 µM

C[C@]12CC[C@@H]3c4cc(OCC(F)(F)F)c(O)cc4/C(=N/O)C[C@H]3[C@@H]1CC[C@@H]2O
active: A498 0.0977 µM | A549 0.0372 µM | BT-549 < 0.01 µM | CAKI-1 0.0468 µM | CCRF-CEM < 0.0163 µM | EKVX 0.23 µM | HOP-92 0.33 µM | Hs-578T 0.0215 µM | IGROV-1 0.147 µM | KM12 0.537 µM | MCF7 0.0247 µM | MDA-MB-231 0.0592 µM | MDA-MB-435 < 0.0126 µM | MDA-N 0.011 µM | Malme-3M 0.0299 µM | NCI-H226 0.27 µM | OVCAR-3 0.0156 µM | SF-268 0.0484 µM | SF-539 0.0188 µM | SK-MEL-2 0.0351 µM | SK-MEL-5 0.0232 µM | SK-OV-3 0.0384 µM | SN12C 0.0873 µM | SNB-19 0.025 µM | SNB-75 < 0.01 µM | U-251 0.026 µM | UACC-257 0.0509 µM
inactive: COLO 205 16 µM | HCC 2998 2.82 µM | HT-29 3.62 µM | OVCAR-4 7 µM | OVCAR-5 12.9 µM | PC-3 2.56 µM | TK-10 23.7 µM
